Read-outs that look alike come from different tables or passages of the source.
Assays:
[1] = molecular target: human JAK1 (a.a. 837-1142) (Homo sapiens, UniProt P23458); experiment: In vitro JAK kinase assay (HTRF), JAK1; assay type: biochemical; conditions: 1 mM ATP; read-out: JAK1 IC50
[2] = molecular target: human JAK2 (a.a. 828-1132) (Homo sapiens (Human), UniProt O60674); experiment: In vitro JAK kinase assay (HTRF), JAK2; assay type: biochemical; conditions: IC50 ratio, 1 mM ATP
[3] = test system: Pfeiffer cells; experiment: Annexin-V staining of Pfeiffer cells (apoptosis); assay type: cell-based, human; conditions: 3 days, 10% FBS + IL10, Compound 16 at 1 μM
[4] = test system: Pfeiffer cells; experiment: Cell proliferation assay in Pfeiffer cells; assay type: cell-based, human; conditions: for IC50: Homo sapiens, Pfeiffer, 72 h, Pfeiffer cells, 3 days, read-out: IC50, cell growth
Experimental: Diffuse large B cell lymphoma cells were seeded at 2000 cell/well in 96 well culture plates in the absence or presence of 10 ng/ml IL10. Compounds were added to these cells after dilution in DMSO first, followed by dilution in culture medium (4× concentration). The cells were cultured in an incubator for 3 days with 5% CO2. Cell proliferation was assessed using the Cell titer-glow assay (Promega, Madison, Wis.).

[5] = test system: Pfeiffer cells; experiment: Western blot analysis of Pfeiffer cells; assay type: cell-based, human; conditions: 4 hours, then IL-10 for 15 minutes
Experimental: The following materials and methods were used in the Western blot analysis infra. Cells (5 million) were lysed in a 300 μl volume of lysis buffer. Soluble fractions were collected by centrifugation. 25 μl of cell lysate were loaded into Tris-Glycine polyacrylamide gels and subjected to electrophoresis. The proteins were transferred into nitrocellulose membrane and probed with antibodies from Cell Signaling Technology for the following proteins: phospho-Stat3 Y705, phospho-Akt 5473, pim1, pim2, pim3, c-myc, phospho-p70S6K, phosho-S6, phospho-Bad S112 and actin.
IL6 and IL10 promote cell survival through the expression of Pim2, which is dependent on JAK1 activity.
Extracts were analyzed by Western blot for pAKT and pSTAT3.

[6] = molecular target: PI3Kδ (p110δ/p85α) (Homo sapiens (Human), UniProt O00329); experiment: PI3Kδ scintillation proximity assay; assay type: biochemical; conditions: 20 μM ATP
Chain of PI3Kδ (p110δ/p85α) (O00329 whole entry): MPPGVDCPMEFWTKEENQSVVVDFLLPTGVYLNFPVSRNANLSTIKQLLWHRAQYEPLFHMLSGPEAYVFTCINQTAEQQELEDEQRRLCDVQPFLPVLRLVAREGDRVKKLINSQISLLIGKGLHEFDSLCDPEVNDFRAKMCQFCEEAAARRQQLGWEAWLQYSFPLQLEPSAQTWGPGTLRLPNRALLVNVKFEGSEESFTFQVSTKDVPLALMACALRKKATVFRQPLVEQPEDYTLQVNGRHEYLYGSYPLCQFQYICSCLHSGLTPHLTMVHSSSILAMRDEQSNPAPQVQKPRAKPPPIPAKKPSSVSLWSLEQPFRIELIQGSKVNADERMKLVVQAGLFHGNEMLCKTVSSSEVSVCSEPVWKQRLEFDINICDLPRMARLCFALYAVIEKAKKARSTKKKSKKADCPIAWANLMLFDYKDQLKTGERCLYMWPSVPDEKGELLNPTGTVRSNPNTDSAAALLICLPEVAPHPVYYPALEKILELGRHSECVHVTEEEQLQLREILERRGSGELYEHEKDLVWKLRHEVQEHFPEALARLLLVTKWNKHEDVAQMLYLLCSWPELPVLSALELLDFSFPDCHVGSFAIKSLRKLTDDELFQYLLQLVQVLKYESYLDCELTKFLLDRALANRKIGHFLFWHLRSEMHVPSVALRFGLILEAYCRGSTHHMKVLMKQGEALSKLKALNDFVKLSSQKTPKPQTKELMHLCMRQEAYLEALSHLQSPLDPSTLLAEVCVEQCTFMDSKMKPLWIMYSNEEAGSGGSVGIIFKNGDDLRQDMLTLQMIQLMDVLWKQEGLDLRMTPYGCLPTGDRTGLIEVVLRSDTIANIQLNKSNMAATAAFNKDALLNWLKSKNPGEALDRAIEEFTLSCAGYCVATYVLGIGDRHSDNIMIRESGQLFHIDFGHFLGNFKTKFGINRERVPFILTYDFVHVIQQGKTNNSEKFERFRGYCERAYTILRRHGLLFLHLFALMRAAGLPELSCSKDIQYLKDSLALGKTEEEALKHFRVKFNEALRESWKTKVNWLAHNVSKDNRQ
Chain of PI3Kδ (p110δ/p85α) (P27986 whole entry partner): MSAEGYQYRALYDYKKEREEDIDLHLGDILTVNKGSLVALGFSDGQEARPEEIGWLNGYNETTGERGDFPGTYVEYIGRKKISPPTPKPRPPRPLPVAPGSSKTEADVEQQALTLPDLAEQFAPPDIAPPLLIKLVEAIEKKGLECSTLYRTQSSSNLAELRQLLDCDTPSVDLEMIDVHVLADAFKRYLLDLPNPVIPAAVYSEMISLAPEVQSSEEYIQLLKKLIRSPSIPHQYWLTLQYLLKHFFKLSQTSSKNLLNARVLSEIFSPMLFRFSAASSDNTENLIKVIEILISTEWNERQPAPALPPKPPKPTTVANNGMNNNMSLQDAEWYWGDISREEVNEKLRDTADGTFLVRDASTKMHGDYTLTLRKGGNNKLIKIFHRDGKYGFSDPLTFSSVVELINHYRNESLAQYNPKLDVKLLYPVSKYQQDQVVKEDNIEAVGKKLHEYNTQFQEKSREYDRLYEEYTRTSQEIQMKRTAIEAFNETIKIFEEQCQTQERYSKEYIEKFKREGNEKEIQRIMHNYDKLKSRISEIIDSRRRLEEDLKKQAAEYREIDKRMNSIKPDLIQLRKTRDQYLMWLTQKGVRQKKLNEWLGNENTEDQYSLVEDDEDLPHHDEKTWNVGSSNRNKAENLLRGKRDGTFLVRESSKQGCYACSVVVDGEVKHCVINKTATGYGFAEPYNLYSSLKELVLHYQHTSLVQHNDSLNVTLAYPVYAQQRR
Experimental: [γ-^33P]ATP (10 mCi/mL) was purchased from Perking Elmer (Waltham, Mass.). […] PI3Kδ (p110δ/p85α) was purchased from Millipore (Bedford, Mass.). ATP, MgCl2, DTT, EDTA, MOPS and CHAPS were purchased from Sigma-Aldrich (St. Louis, Mo.). Wheat Germ Agglutinin (WGA) YSi SPA Scintillation Beads was purchased from GE healthcare life sciences (Piscataway, N.J.). The kinase reaction was conducted in polystyrene 384-well matrix white plate from Thermo Fisher Scientific in a final volume of 25 μL. Inhibitors were first diluted serially in DMSO and added to the plate wells before the addition of other reaction components. The final concentration of DMSO in the assay was 0.5%. […] Reactions were initiated by the addition of ATP, the final reaction mixture consisted of 20 μM PIP2, 20 μM ATP, 0.2 μCi [γ-^33P] ATP, 4 nM PI3Kδ. Reactions were incubated for 210 min and terminated by the addition of 40 μL SPA beads suspended in quench buffer: 150 mM potassium phosphate pH 8.0, 20% glycerol. 25 mM EDTA, 400 μM ATP. The final concentration of SPA beads was 1.0 mg/mL. After the plate sealing, plates were shaken overnight at room temperature and centrifuged at 1800 rpm for 10 minutes, the radioactivity of the product was determined by scintillation counting on Topcount (Perking Elmer).

[7] = test system: Pfeiffer human tumor xenograft; experiment: Pfeiffer model of lymphoma (human tumor xenograft in SCID mice); assay type: in vivo, mouse
Experimental: Female SCID mice, (5 to 8 weeks of age, Charles River Laboratories, Wilmington, Mass.) were inoculated with 1×10^7 tumor cells (Pfeiffer, ATCC #CRL-2632, Manassas, Va.) and matrigel (BD Biosciences #354234) in 0.2 mL sterile saline. The inoculation was performed subcutaneously on the flank. Tumor tissue fragments (approximately 3 mm×3 mm) were collected 3 to 6 weeks after the inoculation of cultured cells and implanted subcutaneously in lieu of cellular inoculation. Tissue fragments were implanted as solid pieces using blunt-tip forceps. The treatment of tumor bearing mice was started 15 to 25 days after tumor inoculation, depending upon the tumor size. Animals were sorted to obtain roughly equivalent mean tumor volumes in each group. Minimum mean tumor volume in all groups was 150 mm3 on the first day of treatment and groups consisted of 7 animals. Experimental therapeutic agent, Example 347, was administered to mice orally (PO). Treatment frequency was 2 times daily for a minimum of 14 days for efficacy. The size of subcutaneous tumors was measured 2 to 3 times weekly using a digital caliper. The tumor volume was calculated by measuring the tumor in 2 dimensions and utilizing the equation: Volume=[Length×(Width2)]/2; where the larger number was length, and the smaller number width. If multiple tumors were formed, the final volume was the sum of the individual tumors subject to the same equation: eg, 2 tumors; Volume={[L1×(W1)2]/2}+{[L2×(W2)2]/2}. Effects on tumor growth were reported as percent tumor growth inhibition (% TGI). Percent TGI was calculated with the equation: (1−(Tx vol./control vol.))*100, where control volume was the vehicle or untreated tumor volume on a given day, and Tx volume was any treatment group tumor volume on that same day. Statistical differences between treatment and vehicle controls were assessed using ANOVA: Single Factor test.
Compound 32c (Table 2 supra) was evaluated as a single agent in the Pfeiffer human tumor xenograft model of diffuse large B-cell lymphoma, a subtype of NHL. […] Therefore, a tumor model was established based on subcutaneous inoculation of tumor cells into immune compromised SCID mice and tumor-bearing mice received twice daily oral doses of vehicle or Compound 32c at 0.3, 1, 3, or 10 mg/kg for 14 days.

[8] = 10% FBS + IL10, ATP readout, Compound 16 at 1 μM in combination

Chain of human JAK2 (a.a. 828-1132) (O60674 828-1132): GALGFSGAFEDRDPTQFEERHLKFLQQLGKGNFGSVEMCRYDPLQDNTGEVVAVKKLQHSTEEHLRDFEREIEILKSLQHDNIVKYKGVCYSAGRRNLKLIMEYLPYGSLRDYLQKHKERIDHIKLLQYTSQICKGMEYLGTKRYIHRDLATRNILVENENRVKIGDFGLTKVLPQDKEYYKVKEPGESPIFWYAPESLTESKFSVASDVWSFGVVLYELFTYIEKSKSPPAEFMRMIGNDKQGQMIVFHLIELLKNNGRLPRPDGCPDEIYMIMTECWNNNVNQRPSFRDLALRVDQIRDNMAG
Chain of human JAK1 (a.a. 837-1142) (P23458 whole entry, looked up): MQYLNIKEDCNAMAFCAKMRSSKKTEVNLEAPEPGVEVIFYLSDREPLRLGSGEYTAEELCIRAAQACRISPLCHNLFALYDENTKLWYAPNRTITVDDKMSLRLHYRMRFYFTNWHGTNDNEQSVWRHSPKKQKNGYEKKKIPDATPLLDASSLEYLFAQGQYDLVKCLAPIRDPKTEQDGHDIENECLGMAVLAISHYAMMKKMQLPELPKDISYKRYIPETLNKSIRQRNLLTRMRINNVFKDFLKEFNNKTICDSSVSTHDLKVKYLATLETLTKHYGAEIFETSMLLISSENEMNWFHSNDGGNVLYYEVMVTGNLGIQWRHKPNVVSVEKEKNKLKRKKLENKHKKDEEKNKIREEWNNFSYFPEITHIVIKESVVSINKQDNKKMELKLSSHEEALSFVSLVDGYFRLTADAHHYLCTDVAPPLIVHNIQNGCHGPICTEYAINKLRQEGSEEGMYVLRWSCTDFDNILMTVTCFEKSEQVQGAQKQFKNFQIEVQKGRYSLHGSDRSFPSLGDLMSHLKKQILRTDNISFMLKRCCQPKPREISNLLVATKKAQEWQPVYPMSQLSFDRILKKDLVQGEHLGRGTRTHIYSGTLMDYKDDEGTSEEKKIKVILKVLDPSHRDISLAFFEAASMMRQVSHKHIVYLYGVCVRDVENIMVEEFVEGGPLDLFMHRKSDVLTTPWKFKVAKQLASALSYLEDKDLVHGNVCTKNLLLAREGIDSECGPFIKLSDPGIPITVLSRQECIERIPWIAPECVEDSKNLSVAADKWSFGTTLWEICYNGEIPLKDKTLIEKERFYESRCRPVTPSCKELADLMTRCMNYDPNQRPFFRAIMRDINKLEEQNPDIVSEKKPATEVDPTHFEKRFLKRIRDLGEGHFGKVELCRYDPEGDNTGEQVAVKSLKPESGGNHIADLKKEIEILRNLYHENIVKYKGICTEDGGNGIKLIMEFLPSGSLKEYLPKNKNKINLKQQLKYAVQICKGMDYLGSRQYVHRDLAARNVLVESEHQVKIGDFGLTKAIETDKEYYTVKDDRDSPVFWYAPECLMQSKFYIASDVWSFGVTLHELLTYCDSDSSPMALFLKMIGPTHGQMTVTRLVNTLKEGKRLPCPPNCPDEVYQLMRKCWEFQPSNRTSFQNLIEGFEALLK

| Structure (SMILES) | apoptosis (Annexin-V staining) [3] | IC50 [4, 8] [nM] | STAT3 phosphorylation [5] | pAKT [5] | IC50 [6] [nM] | other results |
| --- | --- | --- | --- | --- | --- | --- |
| C[C@H](NC(=O)c1cc(F)c(N2CC(CC#N)(n3cc(-c4ncnc5[nH]ccc45)cn3)C2)cc1F)C(F)(F)F [Compound 16, 4-{3-(cyanomethyl)-3-[4-(7H-pyrrolo[2,3-d]pyrimidin-4-yl)-1H-pyrazol-1-yl]azetidin-1-yl}-2,5-difluoro-N-[(1S)-2,2,2-trifluoro-1-methylethyl]benzamide] | neither agent alone had a significant effect | > 1000 | inhibition | no effect | – | IC50 [1]: < 10 nM; JAK2/JAK1 [2]: >10 |
| Cc1csc2nc([C@H](C)Nc3ncnc4[nH]cnc34)c(-c3cccc(F)c3)c(=O)n12 [Compound 28, (S)-7-(1-(9H-purin-6-ylamino)ethyl)-6-(3-fluorophenyl)-3-methyl-5H-thiazolo[3,2-a]pyrimidin-5-one] | neither agent alone had a significant effect | 6360 | did not | complete inhibition | – | IC50 ([4]; -IL-10, ATP readout): 670 nM |
| COc1c(C(C)n2nc(C)c3c(N)ncnc32)cc(Cl)c(C#N)c1C1CN(C[C@H](C)O)C1 (stereo partly drawn) [Compound 29, 4-[1-(4-amino-3-methyl-1H-pyrazolo[3,4-d]pyrimidin-1-yl)ethyl]-6-chloro-2-{1-[(2S)-2-hydroxypropyl]azetidin-3-yl}-3-methoxybenzonitrile] | – | – | – | – | < 50 | – |
| COc1c(C(C)n2nc(C)c3c(N)ncnc32)cc(Cl)c(C#N)c1C1CN(CCO)C1 (stereo not shown) [Compound 30, 4-[1-(4-amino-3-methyl-1H-pyrazolo[3,4-d]pyrimidin-1-yl)ethyl]-6-chloro-2-[1-(2-hydroxyethyl)azetidin-3-yl]-3-methoxybenzonitrile] | – | – | – | – | < 50 | – |
| CCOc1c(C(C)n2nc(C)c3c(N)ncnc32)cc(C)c(C#N)c1-c1ccc(C(=O)N(C)C)nc1 (stereo not shown) [Compound 31, 5-{3-[1-(4-amino-3-methyl-1H-pyrazolo[3,4-d]pyrimidin-1-yl)ethyl]-6-cyano-2-ethoxy-5-methylphenyl}-N,N-dimethylpyridine-2-carboxamide] | – | – | – | – | < 50 | – |
| CCOc1c(C(C)n2nc(C)c3c(N)ncnc32)cc(Cl)c(F)c1C1CNC(=O)C1 (stereo not shown) [Compound 32c, 4-{3-[1-(4-amino-3-methyl-1H-pyrazolo[3,4-d]pyrimidin-1-yl)ethyl]-5-chloro-2-ethoxy-6-fluorophenyl}pyrrolidin-2-one] | – | – | – | – | – | percent tumor growth inhibition ([7]; 0.3 mg/kg oral twice daily for 14 days): 22%; percent tumor growth inhibition ([7]; 1 mg/kg oral twice daily for 14 days): 24%; percent tumor growth inhibition ([7]; 3 mg/kg oral twice daily for 14 days): 36%; percent tumor growth inhibition ([7]; 10 mg/kg oral twice daily for 14 days): 58%; anti-proliferative effects on Pfeiffer cancer cells ([4]; in vitro): sensitive |

— patent publication US10675284B2, “Treatment of B-cell malignancies by a combination JAK and PI3K inhibitors” (Incyte Corporation, priority 2014, dated 2020)
